Patent US8975234B2, “Anti-bacterial infection, inflammation, and leukemia composition and use thereof” (priority 2011, dated 2015)
Values after ≈ are worked out from the molar mass of the structure shown. Where two headings read alike, the source gives them in different places.

Experiments:
DPPH scavenging assay = settings: 100 μM; −FeCl2
Method: Test reagents, natural extracts and Vitamin C (ascorbic acid) were dissolved in methanol to make a stock solution 10×. Vitamin C was used as the positive control. 120 μM DPPH solution was prepared. Taken 20 μL of stock reagents, natural extracts and Vitamin C on a 96-well microplate, and methanol was added to make up to the total volume of 100 μL. Control was 100 μL methanol. Each sample was mixed with 100 μL DPPH solution and incubated in the dark for 40 minutes. DPPH level of each well was evaluated by detecting the optical density of each well at 517 nm and the results were shown in Table 5.

MRSA 18631 = experiment: Minimum inhibitory concentration (broth microdilution) and FIC index; type: cell-based, Staphylococcus aureus
Method: (§1) A serial of twofold dilution of the tested antibiotics (oxacillin, erythromycin, ampicillin, kanamycin, levofoxacin, vancomycin and doxycycline) was perform by Broth microdilution method to a final concentration of 2-512 μg/mL. The bacterial overnight culture was collected and re-suspended in the Muller-Hilton (M-H) broth. An aliquot of cell suspension (OD600=0.1) was prepared. The bacterial suspensions were plated in 96-well plate and incubated with test antibiotics at 37° C. in a 5% CO2 incubator (Table 1 to Table 4).
(§2) The […], […] and antagonism between two drugs was evaluated by the following formula:
(§3) [formula] The criteria of fractional inhibitory concentration index: […]

MRSA 18271 = experiment: as above; type: cell-based, Staphylococcus aureus
Method: as §1, §2, §3

MRSA 19615 [1] = experiment: as above; type: cell-based, Staphylococcus aureus
Method: as §1, §2, §3

[2] = system: 14 clinical isolated MRSA strains; experiment: MIC and FIC index of oxacillin with Tellimagrandin II, clinical isolates; type: cell-based; settings: Staphylococcus aureus
Method: 14 clinical isolated MRSA strains were tested with oxacillin and Tellimagrandin II (40 μg/mL) and the FIC index was calculated.
as §1, §2, §3

[3] = system: MSSA (Methicillin-susceptible Staphylococcus aureus); experiment: Minimum inhibitory concentration (broth microdilution) and FIC index; type: cell-based
Method: as §1, §2, §3

[4] = system: Staphylococcus aureus (MSSA and MRSA strains); experiment: Synergy of antibiotics with Tellimagrandin II (text summary of Tables 1 to 4); type: cell-based; settings: Table 2
Method: as §1, §2, §3

MRSA 19615 [5] = experiment: Time-killing curve; type: cell-based, Staphylococcus aureus; settings: 5 μg/mL alone
Method: MRSA 19615 bacteria were cultured overnight, collected and re-suspended in 25 mL MHB containing TGII and antibiotics of the indicated final concentration. To dilute the samples, samples were taken from the suspension at indicated time interval and mixed with filtered PBS, followed by spreading the diluted sample on MHA plated for two plates/each time point. Colony counts between 150 and 500 colonies in first time point was used to determine the dilution fold. Time-killing curves were calculated from colony counting and data analyzing was performed after overnight culture. Bacterial time-kill curves were constructed by plotting mean colony counts (log10 cfu/mL) versus time (FIGS. 4 and 5).

[6] = system: standard MRSA strain (ATCC 33591); experiment: Minimum inhibitory concentration (broth microdilution); type: cell-based, Staphylococcus aureus; settings: Staphylococcus aureus, Table 1
Method: as §1

K-562 cells = experiment: ROS test (DCF-DA); type: cell-based, human; settings: pre-treatment 10 μM before Tellimagrandin II 50 μM for 2 hours
Method: A radical specific fluorescent dye, 2′,7′-dichlorofluorescein (DCF-DA) was used to detect H2O2/NO-based radicals or O2— in cells respectively.
A total of 3 mL cell solution at the concentration of 1×10^6 K-562 cells per mL was cultured with 6 cm cell culture plates in an incubator supplied with 5% CO2 at 37° C. for 30 minutes so that cells could adapt to the environment. Tellimagrandin II solutions of different concentrations were added by order so that the final concentrations are 0, 30, 40 and 50 μM respectively. The solution was placed in incubator with 5% CO2 at 37° C. for 2 hours before being centrifuged at 3,500 rpm at 4° C. for 5 minutes and then being rinsed by PBS once. 2′,7′-dichlorofluorescein (DCF-DA) was added before the solution was put into dark incubator for 45 minutes and then rinsed by PBS once again. Finally, 1 mL PBS was used to resuspend the cells before BD FACScan was used to detect the fluorescent signal.

[7] = Staphylococcus aureus, MRSA, Table 1, MRSA 18631, read-out: Minimum inhibitory concentration
[8] = Table 3, 18631, Tellimagrandin II (40 μg/ml) +
[9] = Staphylococcus aureus, MRSA, Table 1, MRSA 18271, read-out: Minimum inhibitory concentration
[10] = Table 3, 18271, Tellimagrandin II (40 μg/ml) +
[11] = Staphylococcus aureus, MRSA, Table 1, MRSA 19615, read-out: Minimum inhibitory concentration
[12] = Table 3, 19615, Tellimagrandin II (40 μg/ml) +
[13] = Staphylococcus aureus, MSSA, Table 1, MSSA, read-out: Minimum inhibitory concentration
[14] = Table 3, MSSA, Tellimagrandin II (40 μg/ml) +

Compound: O=C1O[C@H]([C@@H](O)CO)C(O)=C1O [Vitamin C, ascorbic acid]
- DPPH free-radical scavenging activity (DPPH scavenging assay): 81.09 ± 0.5%

Compound: Cc1onc(-c2ccccc2)c1C(=O)N[C@@H]1C(=O)N2[C@@H]1SC(C)(C)[C@@H]2C(=O)O [Oxacillin]
- MIC (MRSA 18631; [7]): > 512 µg/mL
- MIC (MRSA 18631; Staphylococcus aureus, MRSA, Table 2, 18631, with TG II 30 μg/mL, read-out: MIC): 64 µg/mL
- MIC (MRSA 18631; Staphylococcus aureus, MRSA, Table 2, 18631, with TG II 40 μg/mL, read-out: MIC): 8 µg/mL
- MIC (MRSA 18631; Staphylococcus aureus, MRSA, Table 2, 18631, without TG II, read-out: MIC): 512 µg/mL
- MIC (MRSA 18631; Staphylococcus aureus, MRSA, Table 3, 18631, Tellimagrandin II (40 μg/ml) −, read-out: MIC): 512 µg/mL
- FIC (MRSA 18631; Table 2, 18631, with TG II 30 μg/mL): 0.125
- FIC (MRSA 18631; Table 2, 18631, with TG II 40 μg/mL): 0.016
- FIC (MRSA 18631; [8]): 0.016
- MIC (MRSA 18631; [8]): 8 µg/mL
- MIC (MRSA 18271; [9]): > 512 µg/mL
- MIC (MRSA 18271; Staphylococcus aureus, MRSA, Table 2, 18271, with TG II 30 μg/mL, read-out: MIC): 32 µg/mL
- MIC (MRSA 18271; Staphylococcus aureus, MRSA, Table 2, 18271, with TG II 40 μg/mL, read-out: MIC): 16 µg/mL
- MIC (MRSA 18271; Staphylococcus aureus, MRSA, Table 2, 18271, without TG II, read-out: MIC): 512 µg/mL
- MIC (MRSA 18271; Staphylococcus aureus, MRSA, Table 3, 18271, Tellimagrandin II (40 μg/ml) −, read-out: MIC): 512 µg/mL
- FIC (MRSA 18271; Table 2, 18271, with TG II 30 μg/mL): 0.0063
- FIC (MRSA 18271; Table 2, 18271, with TG II 40 μg/mL): 0.0031
- FIC (MRSA 18271; [10]): 0.031
- MIC (MRSA 18271; [10]): 16 µg/mL
- MIC (MRSA 19615 [1]; [11]): 512 µg/mL
- MIC (MRSA 19615 [1]; Staphylococcus aureus, MRSA, Table 2, 19615, with TG II 30 μg/mL, read-out: MIC): < 2 µg/mL
- MIC (MRSA 19615 [1]; Staphylococcus aureus, MRSA, Table 2, 19615, with TG II 40 μg/mL, read-out: MIC): 4 µg/mL
- MIC (MRSA 19615 [1]; Staphylococcus aureus, MRSA, Table 2, 19615, without TG II, read-out: MIC): 512 µg/mL
- MIC (MRSA 19615 [1]; Staphylococcus aureus, MRSA, Table 3, 19615, Tellimagrandin II (40 μg/ml) −, read-out: MIC): 512 µg/mL
- FIC (MRSA 19615 [1]; Table 2, 19615, with TG II 30 μg/mL): 0.004
- FIC (MRSA 19615 [1]; Table 2, 19615, with TG II 40 μg/mL): 0.008
- FIC (MRSA 19615 [1]; [12]): 0.008
- MIC (MRSA 19615 [1]; [12]): 4 µg/mL
- MIC ([2]; MRSA 1, oxacillin alone): 512 µg/mL
- MIC ([2]; MRSA 2, oxacillin alone): 512 µg/mL
- MIC ([2]; MRSA 3, oxacillin alone): 512 µg/mL
- MIC ([2]; MRSA 4, oxacillin alone): 512 µg/mL
- MIC ([2]; MRSA 5, oxacillin alone): 512 µg/mL
- MIC ([2]; MRSA 6, oxacillin alone): 256 µg/mL
- MIC ([2]; MRSA 7, oxacillin alone): 256 µg/mL
- MIC ([2]; MRSA 8, oxacillin alone): 128 µg/mL
- MIC ([2]; MRSA 9, oxacillin alone): 128 µg/mL
- MIC ([2]; MRSA 10, oxacillin alone): 64 µg/mL
- MIC ([2]; MRSA 11, oxacillin alone): 64 µg/mL
- MIC ([2]; MRSA 12, oxacillin alone): 64 µg/mL
- MIC ([2]; MRSA 13, oxacillin alone): 64 µg/mL
- MIC ([2]; MRSA 14, oxacillin alone): 32 µg/mL
- MIC [3, 13]: 4 µg/mL
- MIC ([3]; Staphylococcus aureus, MSSA, Table 2, Non-drug resistant Staphylococcus aureus, with TG II 30 μg/mL, read-out: MIC): < 2 µg/mL
- MIC ([3]; Staphylococcus aureus, MSSA, Table 2, Non-drug resistant Staphylococcus aureus, with TG II 40 μg/mL, read-out: MIC): < 2 µg/mL
- MIC ([3]; Staphylococcus aureus, MSSA, Table 2, Non-drug resistant Staphylococcus aureus, without TG II, read-out: MIC): 4 µg/mL
- MIC ([3]; Staphylococcus aureus, MSSA, Table 3, MSSA, Tellimagrandin II (40 μg/ml) −, read-out: MIC): 4 µg/mL
- FIC ([3]; Table 2, Non-drug resistant Staphylococcus aureus, with TG II 30 μg/mL): 0.5
- FIC ([3]; Table 2, Non-drug resistant Staphylococcus aureus, with TG II 40 μg/mL): 0.5
- FIC [3, 14]: 0.5
- MIC [3, 14]: 2 µg/mL
- effect of antibiotic with Tellimagrandin II [4]: synergistic effect
- bacterial growth, time-killing curve (MRSA 19615 [5]): failed to inhibit bacterial growth
- MIC [6]: 512 µg/mL (≈ 1280 µM)

Compound: CC[C@H]1OC(=O)[C@H](C)[C@@H](O[C@H]2C[C@@](C)(OC)[C@@H](O)[C@H](C)O2)[C@H](C)[C@@H](O[C@@H]2O[C@H](C)C[C@H](N(C)C)[C@H]2O)[C@](C)(O)C[C@@H](C)C(=O)[C@H](C)[C@@H](O)[C@]1(C)O [Erythromycin]
- MIC (MRSA 18631; Staphylococcus aureus, MRSA): 512 µg/mL
- MIC (MRSA 18631; [7]): > 512 µg/mL
- FIC (MRSA 18631; [8]): 1.00
- MIC (MRSA 18631; [8]): 512 µg/mL
- MIC (MRSA 18271; Staphylococcus aureus, MRSA): 512 µg/mL
- MIC (MRSA 18271; [9]): > 512 µg/mL
- FIC (MRSA 18271; [10]): 1.00
- MIC (MRSA 18271; [10]): 512 µg/mL
- MIC (MRSA 19615 [1]; Staphylococcus aureus, MRSA): 512 µg/mL
- MIC (MRSA 19615 [1]; [11]): > 512 µg/mL
- FIC (MRSA 19615 [1]; [12]): 1.00
- MIC (MRSA 19615 [1]; [12]): 512 µg/mL
- MIC [3, 13]: 128 µg/mL
- FIC [3, 14]: 0.50
- MIC [3, 14]: 64 µg/mL
- MIC [6]: > 512 µg/mL

Compound: CC(=O)N[C@@H](CS)C(=O)O [N-acetyl-L-cysteine]
- ROS production (K-562 cells): inhibition of ROS production
